Test results from patent US11332470B2, “CXCR4 inhibitors and uses thereof” (X4 Pharmaceuticals, Inc., priority 2016, dated 2022).

Legend:
CXCR4 (U87.CXCR4 cells) = target: T1, CXCR4 (U87.CXCR4 cells) (Homo sapiens, UniProt P61073); assay: Intracellular CXCL-12-induced calcium mobilization assay (FLIPR); type: cell-based; conditions: CXCL-12 25-50 ng/mL, read-out: IC50 CXCL-12 Ca2+ flux U87.CXCR4+
T1 construct: expressed in transfected cells; host or cells: U87 (U87.CXCR4)
Method in brief: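 U87.CXCR4 cells were loaded with 4 μM Fluo-2 AM for 45 min at 37 °C in HBSS/20 mM HEPES/0.2% BSA, pH 7.4. Calcium flux induced by CXCL-12 (25-50 ng/mL) was monitored kinetically by FLIPR fluorescence at 37 °C.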

[1] = target: T2, CXCR4 (Jurkat cells expressing CXCR4) (Homo sapiens, UniProt P61073); assay: Chemokine (CXCL12-AF647) binding inhibition assay; conditions: CXCL12-AF647 25 ng/mL, read-out: IC50 CXCL-12 binding Jurkat
T2 construct: Jurkat cells expressing CXCR4; endogenous in cells; host or cells: Jurkat
Method in brief: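 Cells in HBSS, 20 mM HEPES, 0.2% BSA, pH 7.4, preincubated 15 min at room temperature with compound, then 25 ng/mL CXCL12-AF647 for 30 min. After washing and paraformaldehyde fixation, bound ligand read by flow cytometry; percent inhibition calculated from MFI relative to unlabeled and ligand-only controls.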

in vitro = conditions: human, Caco-2, pH 7.4
Experimental: The goal of this assay was to evaluate the intestinal absorption potential of drug candidates using Caco-2 cell lines.
1. Prewarm Prewarm HBSS Buffer in 37° C. water bath
2. Sonicate Take compounds from −20° C., sonicate for a few minutes (no less than 1 minute)
• Donor solution buffer: For A-to-B Direction: HBSS buffer with 0.3% DMSO and 5 μM LY: add 150 μL DMSO and 50 μL LY (5 mM) into 50 ml HBSS buffer (pH 7.4). HBSS buffer with 0.1% DMSO and 5 μM LY: add 50 μL DMSO and 50 μL LY (5 mM) into 50 mL HBSS buffer (pH 7.4). For B-to-A Direction: HBSS buffer with 0.3% DMSO: add 150 μL DMSO into 50 ml HBSS buffer (pH 7.4). HBSS buffer with 0.1% DMSO: add 50 μL DMSO into 50 ml HBSS buffer (pH 7.4). Receiver Solution Buffer: For A-to-B Direction: Prepare HBSS buffer with 0.4% DMSO: add 200 μL DMSO into 50 ml HBSS buffer (pH 7.4). For B-to-A Direction: Prepare HBSS buffer with 0.4% DMSO and 5 μM LY: add 200 μL DMSO and 50 μL LY (5 mM) into 50 ml HBSS buffer (pH 7.4).
4. Measure TEER Take cell culture plate out of incubator, wash the cell monolayers with HBSS buffer, and then measure TEER values at Rm temperature. 5. Centrifuge Centrifuge the compound solution (from step 3) at 4000 rpm for 5 min before loading to donor chambers. 6. Dosing Add solution based on the volumes listed in the following table (make sure to take extra 100 μL of donor sample for TO as Backup).
7. Apical LYT0 samples To determine LY concentration in the apical chamber, take 100 μL sample from apical chambers into an opaque plate for LYT0. 8. Prewarm Prewarm apical and basolateral plates at 37° C. for about 5 min, then begin transport by placing the apical plate onto basolateral plate. 9. Incubation Keep the plates in incubator at 37° C. for 90 min. 10.
Prepare Working Solution in MeOH/H2O (1:1)
• Prepare 1×solution: 3 μL (20×)+57 μL of 0.4% DMSO HBSS+60 μL ACN with IS (Osalmid or Imipramine)−120 μL (1×) 11. Transport termination Separate the apical plate from the basolateral plate after 90-min incubation. 12. Measure LY Take 100 μL samples from basolateral plate to an opaque plate as LYT90. 13. Measure LY concentrations for LYT0 and LYT90 by Fluorometer (at excitation of 485 nm/emission of 535 nm). 14.
Study details: Test concentration 10 μM
Test systems: Caco-2/HBSS solution
Incubation conditions: 0, 90 min at 37° C.
Sample size: Duplicates (n=2)
Bioanalytical method: LC-MS/MS
For Millicell-24 Cell Culture Plates: surface area of the membrane=0.7 cm^2, VA=0.8 mL (A-to-B) or 0.4 mL (B-to-A)
The compound numbers correspond to the compound numbers in Table 1.

T2 sequence (P61073 whole entry): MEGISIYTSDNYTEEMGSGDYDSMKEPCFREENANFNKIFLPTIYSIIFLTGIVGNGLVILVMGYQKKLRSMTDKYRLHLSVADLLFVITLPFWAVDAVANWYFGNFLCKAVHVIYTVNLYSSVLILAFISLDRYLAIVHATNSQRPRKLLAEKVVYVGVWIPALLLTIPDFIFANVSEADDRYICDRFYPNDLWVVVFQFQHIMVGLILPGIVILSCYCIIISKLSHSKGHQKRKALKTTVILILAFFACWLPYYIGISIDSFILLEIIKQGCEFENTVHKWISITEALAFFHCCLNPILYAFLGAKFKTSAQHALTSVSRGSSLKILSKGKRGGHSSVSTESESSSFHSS
T1 sequence (P61073 whole entry): as above

SMILES	IC50 (CXCR4 (U87.CXCR4 cells)) [nM]	IC50 [1] [nM]	Papp A→B at 90 min, 10 μM (in vitro) [×10⁻⁶ cm/s]	Papp B→A at 90 min, 10 μM (in vitro) [×10⁻⁶ cm/s]	efflux ratio at 90 min, 10 μM (in vitro)
Cc1cccnc1CN1CCCC1c1nccn1CC1CCN(C)CC1 (centres unmarked) [Compound I-92]	100 to 1000	0.01 to 100	0.1 to 10	10 to 30	0.1 to 10
c1ccc(OCc2c(CN3CCCC3c3ccccn3)nc3ccccn23)nc1 (centres unmarked) [Compound I-94]	≥ 1000	≥ 1000	10 to 30	> 30	0.1 to 10
c1ccc(N2CCN(c3c(CN4CCCC4c4ccccn4)nc4ccccn34)CC2)cc1 (centres unmarked) [Compound I-96]	≥ 1000	100 to 1000	10 to 30	10 to 30	0.1 to 10
c1ccc(C2CCCN2Cc2nc3ccccn3c2N2CCN(c3ccccn3)CC2)nc1 (centres unmarked) [Compound I-97]	100 to 1000	0.01 to 100	> 30	> 30	0.1 to 10
FC(F)(F)CN1CCN(c2c(CN3CCCC3c3ccccn3)nc3ccccn23)CC1 (centres unmarked) [Compound I-98]	100 to 1000	0.01 to 100	> 30	> 30	0.1 to 10
Cc1cccnc1C1CCCN1Cc1cn2c(C3OCC(N(C)C)CO3)cccc2n1 (centres unmarked) [Compound I-99]	100 to 1000	0.01 to 100	0.1 to 10	> 30	> 30
CN1CCN(c2c(C3CCCN3Cc3ccccn3)nc3ccccn23)CC1 (centres unmarked) [Compound I-101]	100 to 1000	0.01 to 100	0.1 to 10	> 30	0.1 to 10
CN1CCN(c2c(C3CCCN3Cc3ncccn3)nc3ccccn23)CC1 (centres unmarked) [Compound I-102]	≥ 1000	100 to 1000	0.1 to 10	> 30	> 30
Cc1cccnc1CN1CCCC1c1cn2c(N3CCN(C)CC3)cccc2n1 (centres unmarked) [Compound I-103]	0.01 to 100	0.01 to 100	0.1 to 10	> 30	0.1 to 10
CN1CCN(c2cccc3nc(C4CCCN4Cc4ccccn4)[nH]c23)CC1 (centres unmarked) [Compound I-104]	100 to 1000	0.01 to 100	0.1 to 10	> 30	0.1 to 10
CN1CCN(c2cccc3nc(C4CCCN4Cc4ncccn4)[nH]c23)CC1 (centres unmarked) [Compound I-105]	≥ 1000	≥ 1000	0.1 to 10	> 30	0.1 to 10
Cc1cccnc1C1CCCN1Cc1nccn1CC1CCN(CC(F)(F)F)CC1 (centres unmarked) [Compound I-106]	≥ 1000	100 to 1000	10 to 30	> 30	0.1 to 10
Cc1cccnc1C1CCCN1Cc1nccn1CC1CCN(C2CC2)CC1 (centres unmarked) [Compound I-107]	0.01 to 100	0.01 to 100	0.1 to 10	10 to 30	0.1 to 10
Cc1cccnc1C1CCCN1Cc1nccn1CC1CCN(c2ccccn2)CC1 (centres unmarked) [Compound I-109]	≥ 1000	100 to 1000	> 30	> 30	0.1 to 10
Cc1cccnc1C1CCCN1Cc1nccn1CC1CCOCC1 (centres unmarked) [Compound I-110]	≥ 1000	100 to 1000	10 to 30	> 30	0.1 to 10
Cc1cccnc1C1CCCN1Cc1nccn1CCCCN1CCOCC1 (centres unmarked) [Compound I-111]	≥ 1000	0.01 to 100	0.1 to 10	10 to 30	0.1 to 10
CN1CCC(Cn2ccnc2CN2CCCC2c2ccccn2)CC1 (centres unmarked) [Compound I-112]	100 to 1000	0.01 to 100	0.1 to 10	10 to 30	> 30
Cc1cccnc1C1CCCN1Cc1ncccc1CC1CCN(C)CC1 (centres unmarked) [Compound I-117]	0.01 to 100	0.01 to 100	0.1 to 10	> 30	> 30
Cc1cccnc1C1CCCN1Cc1ncccc1CN1CCOCC1 (centres unmarked) [Compound I-118]	≥ 1000	100 to 1000	0.1 to 10	> 30	0.1 to 10
Cc1cccnc1C1CCCN1Cc1nc2ccccn2c1CN1CCOCC1 (centres unmarked) [Compound I-119]	100 to 1000	0.01 to 100	0.1 to 10	> 30	10 to 30
Cc1cccnc1C1CCCN1Cc1nc2ccccc2n1CC1CCN(C)CC1 (centres unmarked) [Compound I-122]	0.01 to 100	0.01 to 100	0.1 to 10	> 30	0.1 to 10
CN1CCN(C(=O)c2c(CN3CCCC3c3ccccn3)nc3ccccn23)CC1 (centres unmarked) [Compound I-123]	≥ 1000	100 to 1000	0.1 to 10	10 to 30	0.1 to 10
